Results reported in patent publication US5602156A, “Method for inhibiting metalloproteinase expression” (The United States of America as represented by the …, priority 1994, dated 1997).
“Also recorded” adds a separate entry of the source.

Tests used:
MMP-1 = experiment: Northern blot of MMP-1 mRNA from A2058 cells; type: cell-based, human; details: 2 μM
Experimental: This example illustrates the effect of compound 1 on MMP-1 and MMP-2 mRNA from A2058 cells using Northern blot analysis.
Total cytoplasmic RNA was purified from A2058 cells using cesium chloride density centrifugation. Cells were treated with DMSO vehicle (0.05 %) or compound 1 (2 μM) for 24 or 48 hr. Total RNA yields from treated and control cells (μg/10^6 cells) were similar. Aliquots (5 μg) of total RNA were denatured and separated on formaldehyde-1% agarose slab gels, passively transferred to GeneScreen, and crosslinked using ultraviolet light exposure. RNA was hybridized in buffer (50% deionized formamide, 5x SSC, 10 mM Tris HCl pH 7.5, 1x Denharts solution without albumin, 1.0% SDS, and 0.125 mg/mL salmon sperm DNA) containing 10^6 counts/mL of ^32 P- labeled probe of either MMP-2, MMP-1, or with GAPDH which was used as a measure of RNA load. Probes were labeled to high specific activity with ^32 P-dCTP using a random primer labeling protocol. The cDNA probes for the MMP-2, MMP-1, and GAPDH have been described. See, Brown, et al., Cancer Res. 50:6184-6191 (1990); Templeton, et at., Cancer Res. 50:5431-5437 (1990); and Fort, et al., Nucleic Acids Res. 13:1431-1441 (1985). Radiolabeled bands were quantitated using laser densitometric analysis of autoradiography bands. […]

[1] = test system: proliferation and metastasis; details: cited from earlier work
arachidonic acid release = details: cited from earlier work
MMP-2 [2] = experiment: Gelatin zymography of A2058 cells, compound 1 with or without TGF-β1 (densitometry); type: cell-based, human; details: control band = 100%
Experimental: (§1) Conditioned media for zymogram and Western blot analysis were produced under serum-free conditions. Cells (2 million) were plated in 25 cm^2 flasks in serum-containing medium and cultured overnight. Serum-containingmedium was removed and the cell monolayers were washed twice with DMEM/ITS (DMEM containing insulin (5 μg/mL), transferrin (5 μg/mL), and selenium (5 ng/mL)). The resultant cells were fed with 3 mL of DMEM/ITS and additives as described in the Examples for two 24 hour periods. Conditioned media samples were collected at 24 hours and cells were refed with fresh DMEM/ITS containing the described additives for an additional 24 hours. Conditioned media samples were centrifuged to remove cells and debris then frozen at -20° C. until use. Freeze and thaw cycles of the conditioned media were limited to no more than two.
(§2) A2058 human melanoma cells, human HT1080 fibrosarcoma cells, and OVCAR3 human ovarian cancer cells were incubated with increasing concentrations of compound 1 (0.2-20 μM) or DMSO control (0.05%) and subjected to gelatin zymography. Aliquots of conditioned medium (15 μL) were electrophoresed on gelatin-containing 10% PAGE gels under nonreducing but denaturing conditions. These conditions allow the different gelatin-degrading species (MMPs) to separate by size. The enzymes renature after removal of the SDS by incubation of the gel with 2.5 % Triton X-100, and degrade the gelatin substrate present in the polyacrylamide gel upon overnight incubation in low salt collagenase buffer. Bands of clearing, seen after Coomassie blue staining correspond to areas of gelatinase activity.
(§3) A2058 and HT1080 cells were incubated with compound 1 (2 μM), with or without TGF-β1 (5 ng/mL) for 24 and 48 hours prior to harvest of conditioned media. Aliquots were subjected to gelatin zymography as described in Example 1. Known concentrated conditioned medium from HT1080 cells was used for identification of the gelatinase species (92 kDa, gelatinase B/MMP-9; 72 kDa, gelatinase A/MMP-2 latent form; 65 kDa intermediate and 62 kDa activated forms of MMP-2).
(§4) Lane 1 is the control resulting from treatment of the cells with 0.1% DMSO. Lanes 2 and 3 correspond to those cells which are treated with 2 μM compound 1 in the absence of TGF-β1 for 24 and 48 hours, respectively. Lane 4 corresponds to cells which have been treated with TGF-β1 in the absence of compound 1. Lane 5 corresponds to cells which have been treated with TGF-β1 for 48 hours with compound 1 being added to the incubation mixture for the final 24 hours. Lane 6 corresponds to cells which have been treated for 48 hours with both TGF-β1 and compound 1.
(§5) *The control band was defined as 100% gelatinase activity and the other
(§6) bands were normalized to it. Numbers reflect triplicate measurements from
(§7) each zymogram band of representative zymograms. Standard deviations, not

phospholipase C-γ = details: cited from earlier work
[3] = test system: gelatinase activity of the metalloproteinases; experiment: Zymogram slices incubated with compound 1 or calcium chelators in the activating buffer (direct inhibition of enzyme); type: biochemical, human
Experimental: See, Felder, et al., J. Pharm. Exp. Therapeut. 257:967-971 (1991) and unpublished observations by the inventors.
Gelatin zymography was carded out using control conditioned media from A2058 cells and HT1080 cells in the absence of compound 1. Zymogram slices were incubated in low salt collagenase buffer with control (DMSO 0.1%), an inhibitory dose of compound 1 (20 μM), or the calcium chelators EGTA (10 mM) and EDTA (10 mM). […] See, Brown, et al., Cancer Res. 50:6184-6191 (1990). […] Lane 1 for each of the zymograms corresponds to A2058 while lane 2 corresponds to HT1080.

MMP-2 [4] = experiment: Gelatin zymography of HT1080 cells, compound 1 with or without TGF-β1 (densitometry); type: cell-based, human; details: control band = 100%
Experimental: as §1, §2, §3, §4, §5, §6, §7

MMP-2 [5] = experiment: Western immunoblot of MMP-2 species in conditioned media; type: cell-based, human
Experimental: as §1
This example illustrates the dose-dependent effects of compound 1 on the presence of MMP-2 and its activated species. Western immunoblots were used to detect the effect of compound 1 on the presence of MMP-2 and its activated species and for crude quantitation of MMP-2 presence.
A2058 and HT1080 conditioned media samples were concentrated 10-fold using ultrafiltration units excluding material of less than 10 or 30 kDa in molecular weight. Aliquots of 15 μL were electrophoresed on 4-20% gradient PAGE gels, electrically transferred to membranes and immunoblotted with specific polyclonal antibody to proMMP-2. This antibody, made to the MMP-2/TIMP-2 complex recognizes the latent and activated MMP-2 species and crossreacts with TIMP-2 (21 kDa).

[6] = with TGF-β1, 2 μM compound 1, 24 hr
[7] = with TGF-β1, 2 μM compound 1, 48 hr
[8] = without TGF-β1, 2 μM compound 1, 24 hr
[9] = without TGF-β1, 2 μM compound 1, 48 hr
[10] = with TGF-β, 2 μM compound 1, 24 hr
[11] = with TGF-β, 2 μM compound 1, 48 hr
[12] = without TGF-β, 2 μM compound 1, 24 hr
[13] = without TGF-β, 2 μM compound 1, 48 hr

Compound: NC(=O)c1nnn(Cc2cc(Cl)c(C(=O)c3ccc(Cl)cc3)c(Cl)c2)c1N [Compound 1, 5-amino-l-(4-(4-chlorobenzoyl)-3,5-dichlorobenzyl)-1,2,3-triazole-4-carboxamide]
- expression of interstitial collagenase MMP-1 (MMP-1): inhibits the expression of interstitial collagenase MMP-1
- antiproliferative and antimetastatic activities [1]: antiproliferative and antimetastatic activities
- arachidonic acid release (arachidonic acid release): inhibits
- gelatinase activity, 65 + 62 kDa (MMP-2 [2]; [6]): 0%
- gelatinase activity, 72 kDa (MMP-2 [2]; [6]): 44%
- gelatinase activity, 65 + 62 kDa (MMP-2 [2]; [7]): 0%
- gelatinase activity, 72 kDa (MMP-2 [2]; [7]): 36%
- gelatinase activity, 65 + 62 kDa (MMP-2 [2]; [8]): 14%
- gelatinase activity, 72 kDa (MMP-2 [2]; [8]): 84%
- gelatinase activity, 65 + 62 kDa (MMP-2 [2]; [9]): 0%
- gelatinase activity, 72 kDa (MMP-2 [2]; [9]): 45%
- tyrosine phosphorylation with activation of phospholipase C-γ (phospholipase C-γ): inhibits
- mechanism not due to calcium chelation [3]: not due to calcium chelation
- gelatinase activity of enzymes in isolation ([3]; compound 1 in zymogram incubation buffer, 20 μM, A2058 and HT1080 media): lack of reduction of gelatinolytic activity in conditioned medium; also recorded: does not inhibit gelatinase activity of the metalloproteinases; also recorded: did not effect its activity in isolation
- gelatinase activity, 65 + 62 kDa (MMP-2 [4]; [10]): 194%
- gelatinase activity, 72 kDa (MMP-2 [4]; [10]): 52%
- gelatinase activity, 65 + 62 kDa (MMP-2 [4]; [11]): 116%
- gelatinase activity, 72 kDa (MMP-2 [4]; [11]): 10%
- gelatinase activity, 65 + 62 kDa (MMP-2 [4]; [12]): 125%
- gelatinase activity, 72 kDa (MMP-2 [4]; [12]): 10%
- gelatinase activity, 65 + 62 kDa (MMP-2 [4]; [13]): 24%
- gelatinase activity, 72 kDa (MMP-2 [4]; [13]): 0.6%
- presence of the MMP-2 species (MMP-2 [5]; A2058 and HT1080, FIG. 4): dose-dependent reduction of the presence of the MMP-2 species
- presence of the MMP-2 species (MMP-2 [5]; A2058 and HT1080, FIG. 4, listed as compound 1): dose-dependent
- presence of the MMP-2 species (MMP-2 [5]; after incubation with 20 μM compound 1): more complete reduction of all species
- shift of MMP-2 species (MMP-2 [5]; before more complete reduction of all species): shift to the lower molecular weight activated species
